Reference: publication PMC8274516, “Identification of imidazo[4,5-c]pyridin-2-one derivatives as novel Src family kinase inhibitors against glioblastoma” (Journal of Enzyme Inhibition and Medicinal Chemistry, 2021)
Like-named read-outs stand apart in the source and are kept apart here.

Assays:
Fyn = molecular target: T1, Fyn (Homo sapiens, UniProt P06241); test: HTRF KinEASE-TK enzymatic assay, Fyn; format: biochemical; conditions: for Inhibition (1 μM, %) Fyn: compound at 1 μM; for Inhibition (1 μM, %) Fyn / IC50: ATP at Km (51.76 µM), average of two independent experiments
T1 construct: purchased Carna Biosciences 08-168
T1 sequence (P06241 whole entry): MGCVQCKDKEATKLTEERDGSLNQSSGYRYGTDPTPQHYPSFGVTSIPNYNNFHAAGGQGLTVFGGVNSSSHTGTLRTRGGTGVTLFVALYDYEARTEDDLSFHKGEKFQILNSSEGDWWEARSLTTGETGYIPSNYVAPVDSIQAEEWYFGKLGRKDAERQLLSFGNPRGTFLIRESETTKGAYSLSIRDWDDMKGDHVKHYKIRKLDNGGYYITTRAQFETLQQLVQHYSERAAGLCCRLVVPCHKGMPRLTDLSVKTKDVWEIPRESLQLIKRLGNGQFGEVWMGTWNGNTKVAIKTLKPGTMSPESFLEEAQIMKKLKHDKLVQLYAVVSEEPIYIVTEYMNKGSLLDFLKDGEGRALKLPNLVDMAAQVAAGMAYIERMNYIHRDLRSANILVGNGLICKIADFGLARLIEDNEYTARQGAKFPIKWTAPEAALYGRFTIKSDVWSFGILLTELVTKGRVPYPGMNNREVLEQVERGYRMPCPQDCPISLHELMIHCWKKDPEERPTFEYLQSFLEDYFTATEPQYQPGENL

Src = molecular target: T2, Src (Homo sapiens, UniProt P12931); test: HTRF KinEASE-TK enzymatic assay, Src; format: biochemical; conditions: for Inhibition (1 μM, %) Src: compound at 1 μM, ATP at Km (16 µM), average of two independent experiments
T2 construct: purchased Carna Biosciences 08-173

U251 GBM cell line = test: Cell proliferation inhibition assay (MTT), U251; format: cell-based; conditions: mean of at least three independent experiments, read-out: Antiproliferative activity IC50, U251
Procedure: (§1) GBM cell lines U87, U251, and T98G (purchased from the American Type Culture Collection Company, Manassas, VA) were cultured in Roswell Park Memorial Institute (RPMI) 1640 medium containing 10% foetal bovine serum (FBS) at 37 °C in 5% CO2 incubator. The U87-EGFRvIII cell line established with EGFRvIII, kindly provided by Professor Xingmei Zhang, and grown in DMEN supplement with 10% FBS and […] G418 (Sigma-Aldrich, St. Louis, MO) at 37 °C in 5% CO2 incubator. The anti-proliferative activities of the compounds to be tested against four glioblastoma cell lines were determined by standard MTT method. In order to determine the anti-proliferation effect of the tested compounds, four cell lines were inoculated at a density of 2 × 10^3 cells/ml and treated with compounds at a concentration of 1–100 µM. The cells were co-incubated with different concentrations of the tested drugs for 72 h, and 10% MTT solution diluted in 100 µL medium was added. After 4 h of incubation, the absorbance value of each hole was measured at […] with an enzyme-linked immunosorbent assay plate reader. All compounds were tested three times in each cell line.

U87 GBM cell line = test: Cell proliferation inhibition assay (MTT), U87; format: cell-based; conditions: 72 h, mean of at least three independent experiments, read-out: Antiproliferative activity IC50, U87
Procedure: as §1

[1] = system: U87-EGFRvIII GBM cell line; test: Cell proliferation inhibition assay (MTT), U87-EGFRvIII; format: cell-based; conditions: 72 h, mean of at least three independent experiments, read-out: Antiproliferative activity IC50, U87-EGFRvIII
T98G GBM cell line = test: Cell proliferation inhibition assay (MTT), T98G; format: cell-based; conditions: 72 h, mean of at least three independent experiments, read-out: Antiproliferative activity IC50, T98G
Procedure: as §1

Row | inhibition at 1 µM (Fyn) | inhibition at 1 µM (Src) | Molecule | further results
1 | – | – | 4-amino-1-(3-bromophenyl)-3-(4-chlorophenyl)-1H-imidazo[4,5-c]pyridin-2(3H)-one [Compound 1c] | Inhibition (1 μM, %) Fyn (Fyn): 31%; Inhibition (1 μM, %) Src (Src): 68%
2 | – | – | 4-amino-3-(4-chlorophenyl)-1-(m-tolyl)-1H-imidazo[4,5-c]pyridin-2(3H)-one [Compound 1b] | Inhibition (1 μM, %) Fyn (Fyn): 11%; Inhibition (1 μM, %) Src (Src): 54%
3 | 35% | 78% | Nc1nccc2c1n(-c1ccc(Cl)cc1)c(=O)n2-c1ccccc1 [Compound 1a, 4-amino-3-(4-chlorophenyl)-1-phenyl-1H-imidazo[4,5-c]pyridin-2(3H)-one] | –
4 | 90% | 96% | Nc1nccc2c1n(-c1ccc(Cl)cc1)c(=O)n2C1CCCC1 [Compound 1d, 4-amino-3-(4-chlorophenyl)-1-cyclopentyl-1,3-dihydro-2H-imidazo[4,5-c]pyridin-2-one] | IC50 (U251 GBM cell line; Homo sapiens, U-251, 72 h): 33.3 ± 3.36 µM; IC50 (U87 GBM cell line): 63.3 ± 10.5 µM; IC50 (Fyn): 0.24 µM; IC50 (Src): 0.19 µM; IC50 [1]: 67.2 ± 3.2 µM; IC50 (T98G GBM cell line; Homo sapiens, T98G): 20.6 ± 0.3 µM
5 | 76% | 88% | Nc1nccc2c1n(-c1ccc(Cl)cc1)c(=O)n2C1CCCCC1 [Compound 1e, 4-amino-3-(4-chlorophenyl)-1-cyclohexyl-1H-imidazo[4,5-c]pyridin-2(3H)-one] | IC50 (U251 GBM cell line; Homo sapiens, U-251, 72 h): 36.1 ± 2.53 µM; IC50 (U87 GBM cell line): 53.6 ± 2.51 µM; IC50 (Fyn): 0.58 µM; IC50 (Src): 0.073 µM; IC50 [1]: > 100 µM; IC50 (T98G GBM cell line; Homo sapiens, T98G): 20.1 ± 0.67 µM
6 | 62% | 84% | CC(C)(C)n1c(=O)n(-c2ccc(Cl)cc2)c2c(N)nccc21 [Compound 1f, 4-amino-1-(tert-butyl)-3-(4-chlorophenyl)-1H-imidazo[4,5-c]pyridin-2(3H)-one] | –
7 | 19% | 16% | CC(C)Cn1c(=O)n(-c2ccc(Cl)cc2)c2c(N)nccc21 [Compound 1g, 4-amino-3-(4-chlorophenyl)-1-isobutyl-1H-imidazo[4,5-c]pyridin-2(3H)-one] | –
8 | 19% | 18% | CN(C)CCn1c(=O)n(-c2ccc(Cl)cc2)c2c(N)nccc21 [Compound 1h, 4-amino-3-(4-chlorophenyl)-1-(2-(dimethylamino)ethyl)-1H-imidazo[4,5-c]pyridin-2(3H)-one] | –
9 | 24% | 65% | COCCn1c(=O)n(-c2ccc(Cl)cc2)c2c(N)nccc21 [Compound 1i, 4-amino-3-(4-chlorophenyl)-1-(2-methoxyethyl)-1H-imidazo[4,5-c]pyridin-2(3H)-one] | –
10 | 12% | 5% | Nc1nccc2c1n(-c1ccc(Cl)cc1)c(=O)n2CCN1CCOCC1 [Compound 1j, 4-amino-3-(4-chlorophenyl)-1-(2-morpholinoethyl)-1H-imidazo[4,5-c]pyridin-2(3H)-one] | –
11 | 65% | 88% | Cc1ccc(-n2c(=O)n(C3CCCC3)c3ccnc(N)c32)cc1 [Compound 1k, 4-amino-1-cyclopentyl-3-(p-tolyl)-1,3-dihydro-2H-imidazo[4,5-c]pyridin-2-one] | –
12 | 28% | 91% | COc1ccc(-n2c(=O)n(C3CCCC3)c3ccnc(N)c32)cc1 [Compound 1l, 4-amino-1-cyclopentyl-3-(4-methoxyphenyl)-1,3-dihydro-2H-imidazo[4,5-c]pyridin-2-one] | –
13 | -2% | 11% | Nc1nccc2c1n(-c1ccc(C(F)(F)F)cc1)c(=O)n2C1CCCC1 [Compound 1m, 4-amino-1-cyclopentyl-3-(4-(trifluoromethyl)phenyl)-1,3-dihydro-2H-imidazo[4,5-c]pyridin-2-one] | –
14 | 44% | 45% | N#Cc1ccc(-n2c(=O)n(C3CCCC3)c3ccnc(N)c32)cc1 [Compound 1n, 4-(4-amino-1-cyclopentyl-2-oxo-1,2-dihydro-3H-imidazo[4,5-c]pyridin-3-yl)benzonitrile] | –
15 | 20% | 19% | Nc1nccc2c1n(-c1ccc(CO)cc1)c(=O)n2C1CCCC1 [Compound 1o, 4-amino-1-cyclopentyl-3-(4-(hydroxymethyl)phenyl)-1,3-dihydro-2H-imidazo[4,5-c]pyridin-2-one] | –
16 | 19% | 66% | Nc1nccc2c1n(-c1cccc(F)c1)c(=O)n2C1CCCC1 [Compound 1p, 4-amino-1-cyclopentyl-3-(3-fluorophenyl)-1,3-dihydro-2H-imidazo[4,5-c]pyridin-2-one] | –
17 | 74% | 85% | Nc1nccc2c1n(-c1ccc3c(c1)OCO3)c(=O)n2C1CCCC1 [Compound 1q, 4-amino-3-(benzo[d][1,3]dioxol-5-yl)-1-cyclopentyl-1H-imidazo[4,5-c]pyridin-2(3H)-one] | IC50 (U251 GBM cell line; Homo sapiens, U-251, 72 h): 30 ± 0.93 µM; IC50 (U87 GBM cell line): 47 ± 3.78 µM; IC50 (Fyn): 0.73 µM; IC50 (Src): 0.22 µM; IC50 [1]: 69 ± 8.39 µM; IC50 (T98G GBM cell line; Homo sapiens, T98G): 20.7 ± 0.67 µM
18 | 30% | 84% | Nc1nccc2c1n(-c1ccc3[nH]ccc3c1)c(=O)n2C1CCCC1 [Compound 1r, 4-amino-1-cyclopentyl-3-(1H-indol-5-yl)-1,3-dihydro-2H-imidazo[4,5-c]pyridin-2-one] | –
19 | 90% | 93% | Nc1nccc2c1n(-c1ccc(Oc3ccccc3)cc1)c(=O)n2C1CCCC1 [Compound 1s, 4-amino-1-cyclopentyl-3-(4-phenoxyphenyl)-1,3-dihydro-2H-imidazo[4,5-c]pyridin-2-one] | IC50 (U251 GBM cell line; 72 h): 24.6 ± 2.28 µM; IC50 (U251 GBM cell line; Homo sapiens, U-251, 72 h): 24.6 µM; IC50 (U87 GBM cell line): 30.3 ± 0.84 µM; IC50 (Fyn): 0.21 µM; IC50 (Src): 0.15 µM; IC50 [1]: 50.5 µM; IC50 (T98G GBM cell line): 16.4 ± 2.12 µM; IC50 (T98G GBM cell line; Homo sapiens, T98G): 16.4 µM

Row | Molecule | inhibition at 1 µM (Fyn) | inhibition at 1 µM (Src) | further results
20 | CC(C)(C)n1nc(-c2ccc(Cl)cc2)c2c(N)ncnc21 [PP2, reference compound] | – | 93% | IC50 (U251 GBM cell line; Homo sapiens, U-251, 72 h): 21.1 ± 2.16 µM; IC50 (U87 GBM cell line): 39.9 ± 6.91 µM; IC50 (T98G GBM cell line; Homo sapiens, T98G): 12.5 ± 2.37 µM
